These results are taken from US8211901B2, “Naphthamide derivatives as multi-target protein kinase inhibitors and histone deacetylase inhibitors” (Shenzhen Chipscreen Biosciences Ltd., priority 2009, dated 2012).

The test system of data set [1] is A549. The data set can be described thus: Tumor cell proliferation (MTS), A549. The format is cell-based. Conditions: Homo sapiens, 72 hours, complete medium. Here is the method:
(§1) Measurement of In Vivo Cell Proliferation:
(§2) Tumor cells were trypsinized and plated into 96-well plates at 3,000 per well and incubated in complete medium with 10% FBS for 24 hours. Compounds were added over a final concentration range of 100 μmol/L to 100 nmol/L in 0.1% DMSO and incubated for 72 hours in complete medium. The effects on proliferation were determined by addition of MTS reagent (Promega) according to the instruction, incubation for 2 hours at 37° C. in CO2 incubator, and record the absorbance at 490 nm using an ELISA plate reader.
(§3) Human Cell Lines are Listed Below:
A549: Non small cell lung carcinoma

In data set [2] the target is T1, human PDGFRβ (Homo sapiens, UniProt P09619).
T1 construct: expressed in transfected cells
In words: PDGF dependent cell proliferation (MTS). The format is cell-based. Conditions: PDGFRβ NIH-3T3 cells, PDGF BB 50 ng/ml, 72 hours, serum-free medium; read-out: GI50 nM (PDGF ligand-dependent cell proliferation). Here is the method:
PDGF Dependent Cell Proliferation:
NIH-3T3 mouse fibroblasts cell line engineered to stably express human PDGFIRβ was constructed and used to evaluate PDGF dependent cell proliferation. PDGFRβ NIH-3T3 cells were plated into 96-well plates at 5,000 per well and incubated with serum-free medium for 24 hours. Compounds and PDGF BB (50 ng/ml) were added and incubated for 72 hours in serum-free medium. The effects on proliferation were determined by addition of MTS reagent (Promega) according to the instruction, incubation for 2 hours at 37° C. in CO2 incubator, and record the absorbance at 490 nm using an ELISA plate reader.

Data set [3] has as its system HUVEC cells. The data set can be described thus: VEGF dependent cell proliferation (MTS). The format is cell-based. The settings on record: Homo sapiens, VEGF 165 50 ng/ml, 72 hours, serum-free medium, read-out: GI50 nM (VEGF ligand-dependent cell proliferation). Here is the method:
VEGF Dependent Cell Proliferation:
HUVEC cells were plated into 96-well plates at 6,000 per well and incubated with serum-free medium for 2 hours. Compounds and VEGF 165 (50 ng/ml) were added and incubated for 72 hours in serum-free medium. The effects on proliferation were determined by addition of MTS reagent (Promega) according to the instruction, incubation for 2 hours at 37° C. in CO2 incubator, and record the absorbance at 490 nm using an ELISA plate reader.

Data set [4] concerns Bel-7402. In words: Tumor cell proliferation (MTS), Bel-7402. The format is cell-based. Conditions: Homo sapiens, 72 hours, complete medium. Here is the method:
as §1, §2, §3
Bel-7402: Hepatocellular carcinoma

The subject of data set [5] is A-498. In words: Tumor cell proliferation (MTS), A-498. The format is cell-based. The settings on record: Homo sapiens, A498; 72 hours, complete medium. Here is the method: as §1, §2
Data set [6] concerns HCT-8. In words: Tumor cell proliferation (MTS), HCT-8. The format is cell-based. Conditions: Homo sapiens, 72 hours, complete medium. Here is the method: as §1, §2, §3
HCT-8: Ileocecal colorectal adenocarcinoma

Data set [7] deals with Class I HDAC. In words: P21 reporter gene assay in HeLa cells. The format is cell-based. Conditions: 24 hours. Here is the method: HDAC subtype selectivity inhibition assay of tested compounds was carried out by several reporter gene assays experiments. Briefly, HeLa cells were seeded in 96-well plates the day before transfection to give a confluence of 50-80%. Cells were transfected with one of reporter gene plasmid containing a promoter sequence or response element upstream of a luciferase gene construct using FuGene6 transfection reagent according to the manufacturer's instruction (Roche). The promoters or response elements including p21-promoter was fused upstream to the luciferase gene reporter construct. For normalizing the transfection efficiency, a GFP expression plasmid was cotransfected. Cells were allowed to express protein for 24 hours followed by addition of individual compounds or the vehicle (DMSO). 24 hours later the cells were harvested, and the luciferase assay and GFP assay were performed using corresponding assay kits according to the manufacturer's instructions (Promega).

Data set [8] relates to MCF-7. In words: Tumor cell proliferation (MTS), MCF-7. Conditions: Homo sapiens, MCF7; 72 hours, complete medium. The format is cell-based. Here is the method:
as §1, §2, §3
MCF-7: Mammary gland adenocarcinoma

Data set [9] concerns total HDAC enzyme (HeLa extract). The data set can be described thus: In vitro inhibition of total HDAC enzyme activity (HDAC Fluorimetric Assay/Drug Discovery Kit). The format is biochemical. Here is the method:
Measurement of In Vitro Inhibition of Total HDAC Enzyme Activity:
The in vitro inhibition of total HDAC enzyme was determined by HDAC Fluorimetric Assay/Drug Discovery Kit (BIOMOL) according to manufacture's instruction. • 1. Add Assay buffer, diluted trichostatin A or test inhibitor to appropriate wells of the microtiter plate. Following table lists examples of various assay types and the additions required for each test.
• 2. Add diluted HeLa extract or other HDAC sample to all wells except those that are to be “No Enzyme Controls” (Blank). • 3. Allow diluted Fluor de Lys™ Substrate and the samples in the microtiter plate to equilibrate to assay temperature (25° C.). • 4. Initiate HDAC reactions by adding diluted substrate (25 μl) to each well and mixing thoroughly. • 5. Allow HDAC reactions to proceed for desired length of time and then stop them by addition of Fluor de Lys™ Developer (50 μl). Incubate plate at room temperature (25° C.) for 10-15 min. • 6. Read samples in a microtiter-plate reading fluorimeter capable of excitation at a wavelength in the range 350-380 nm and detection of emitted light in the range 440-460 nm. Measurement of In Vivo Inhibition of HDAC Subtype Activity: […]

Data set [10] relates to human HCT-8 colon cancer xenograft. In words: Antitumor activity of compounds 33 and 34, HCT-8 xenograft (Example 54). The format is in vivo, nu/nu mice. As to the method:
(§4) The antitumor activity of compound 33 and compound 34 were measured in human HCT-8 colon cancer xenograft model. The female nu/nu mice of 18˜20 g were fed by normal diet for 3 days. Then the cultured HCT-8 human colon cancer cells were implanted into the armpit of 50 mice. When tumors had reached approximately 100 mm^3, the mice were divided into 6 groups randomly. Each group has 8 mice. One group was treated with vehicle. One group was treated with sutent, the positive control drug. Two groups were treated with compound 33. The other two groups were treated with compound 34. Each group was dosed orally once a day for 20 days. Tumor volumes as established by caliper measurements were recorded twice per week, along with body weights. At the end of study, the mice were killed, and tumors were weighed. The tumor growth inhibition of each group was calculated using the formula {[(the average tumor weight of vehicle group)−(the average tumor weight of drug group)]/(the average tumor weight of vehicle group)}×100%.

Data set [11] can be described thus: Body weight in HCT-8 xenograft study (Example 54). The format is in vivo, nu/nu mice. Here is the method:
as §4

A short description of data set [12]: Body weight in HCT-8 xenograft study (Example 55). The format is in vivo, nu/nu mice. Here is the method:
as §4, with “37” for “34”, “When tumors had reached approximately 100 mm^3, the mice were divided into 6 groups randomly. Each group has 8 mice.” left out, “37. Compound 33 was administered twice a day with an interval of 6 hours. Other drugs and vehicle were administered once a day.” for “34.”, “orally” for “orally once a day”

Data set [13] can be described thus: Body weight in SSMC7721 xenograft study (Example 56). The format is in vivo, nu/nu mice. As to the method:
The antitumor activity of compound 33 and compound 37 were measured in human SSMC7721 liver cancer xenograft model. The female nu/nu mice of 18˜20 g were fed by normal diet for 3 days. Then the cultured SSMC7721 human liver cancer cells were implanted into the armpit of 50 mice. […] Each group has 8 mice. One group was treated with vehicle. One group was treated with sutent, the positive control drug. Two groups were treated with compound 33. The other two groups were treated with compound 37. Each group was dosed orally once a day for 30 days. Tumor volumes as established by caliper measurements were recorded twice per week, along with body weights. At the end of study, the mice were killed, and tumors were weighed. The tumor growth inhibition of each group was calculated using the formula {[(the average tumor weight of vehicle group)−(the average tumor weight of drug group)]/(the average tumor weight of vehicle group)}×100%.

Where [14] appears, read: 30 mg/kg orally once a day for 20 days.
Setting [15] is: 60 mg/kg orally once a day for 20 days.
Where [16] appears, read: 30 mg/kg orally once a day for 30 days.
[17] abbreviates: 60 mg/kg orally once a day for 30 days.

T1 sequence (P09619 33-1106): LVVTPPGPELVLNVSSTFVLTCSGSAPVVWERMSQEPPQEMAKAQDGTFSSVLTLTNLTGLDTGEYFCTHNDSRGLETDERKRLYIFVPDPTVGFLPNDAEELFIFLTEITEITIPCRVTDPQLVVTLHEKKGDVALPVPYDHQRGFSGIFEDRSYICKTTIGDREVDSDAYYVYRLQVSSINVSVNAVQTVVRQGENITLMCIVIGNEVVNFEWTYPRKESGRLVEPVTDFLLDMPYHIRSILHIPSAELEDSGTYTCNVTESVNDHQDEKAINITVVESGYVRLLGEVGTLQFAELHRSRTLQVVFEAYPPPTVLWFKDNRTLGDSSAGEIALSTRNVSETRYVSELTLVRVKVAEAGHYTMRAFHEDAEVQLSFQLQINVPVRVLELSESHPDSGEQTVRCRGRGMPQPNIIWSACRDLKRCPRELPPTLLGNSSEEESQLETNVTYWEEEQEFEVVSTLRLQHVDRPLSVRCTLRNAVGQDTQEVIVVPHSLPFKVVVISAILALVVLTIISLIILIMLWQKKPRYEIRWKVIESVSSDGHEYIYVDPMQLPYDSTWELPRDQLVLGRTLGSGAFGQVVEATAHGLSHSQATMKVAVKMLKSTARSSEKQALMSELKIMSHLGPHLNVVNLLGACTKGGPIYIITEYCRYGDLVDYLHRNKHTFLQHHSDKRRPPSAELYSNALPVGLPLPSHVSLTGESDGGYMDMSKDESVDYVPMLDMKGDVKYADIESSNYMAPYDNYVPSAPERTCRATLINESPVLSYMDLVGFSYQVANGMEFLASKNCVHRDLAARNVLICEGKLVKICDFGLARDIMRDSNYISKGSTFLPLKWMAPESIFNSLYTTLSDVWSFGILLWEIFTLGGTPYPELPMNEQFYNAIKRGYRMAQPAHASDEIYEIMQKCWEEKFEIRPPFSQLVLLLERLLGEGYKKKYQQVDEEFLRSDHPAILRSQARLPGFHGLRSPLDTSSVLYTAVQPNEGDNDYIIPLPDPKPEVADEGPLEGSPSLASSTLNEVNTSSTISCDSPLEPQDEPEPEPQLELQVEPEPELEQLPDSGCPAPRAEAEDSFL

Consider `COc1ccc2c(Oc3ccc4c(C(=O)Nc5ccc(F)cc5N)cccc4c3)ccnc2c1` [Example 32, N-(2-amino-4-fluorophenyl)-6-(7-methoxyquinolin-4-yloxy)-1-naphthamide], for which the GI50 in [1] is 8.3 µM; in data set [2], 20 nM; in [3] it was 2 nM; in [4] it was 17.3 µM; in data set [5] it was 7.5 µM; in data set [6], 6.6 µM. The compound further came in with a GI50 in data set [8] of 15.9 µM. Also, the “Class I HDAC (P21 reporter assay) Fold Induction at 10 μM” value in [7] is 1.8 Fold. For the same compound, in data set [9], the “% inhibition of total HDAC enzyme activity at 30 μM” value (shortened to “% inhibition”) worked out at 21.7%.
As to `COc1ccc2c(Oc3ccc4c(C(=O)NCc5ccc(C(=O)Nc6ccccc6N)cn5)cccc4c3)ccnc2c1` [Example 34], the “TGI (%) Tumor growth inhibition” value in data set [10] (setting [14]) was 3.07%; in data set [10] (setting [15]) it was 32.7%. In addition, the “Tumor weight” value turned out to be 3.95 ± 0.73 g in data set [10] (setting [14]) and 2.74 ± 0.77 g in [10] (setting [15]). The GI50 was found to be 11.2 µM in data set [1]; 248 nM in [2]; 90 nM in data set [3]; 17.7 µM in [4]; 7.9 µM in data set [5]; 5.5 µM in data set [6]. The same compound gave a GI50 in data set [8] of 5.2 µM. The entries for the “Body weight (g) end” value in data set [11] (setting [14]) and in data set [11] (setting [15]) were 21.2 ± 1.9 g and 21.6 ± 2.3 g, respectively. In addition, the “Body weight (g) start” value is 19.7 ± 1.2 g in data set [11] (setting [14]) and 19.6 ± 1.1 g in data set [11] (setting [15]). Besides, the “Class I HDAC (P21 reporter assay) Fold Induction at 10 μM” value in data set [7] is 5.0 Fold. Besides, the “% inhibition” value in data set [9] is 38.8%.
In the case of `COc1cc2nccc(Oc3ccc4c(C(=O)Nc5ccccc5N)cccc4c3)c2cc1OC` [Example 35, N-(2-aminophenyl)-6-(6,7-dimethoxyquinolin-4-yloxy)-1-naphthamide], the GI50 in data set [1] was determined as 7.7 µM; in [2], 5 nM; in data set [3], 1 nM; in data set [4], 19.5 µM; in data set [5] it was 9.1 µM; in data set [6] it was 8.9 µM. The GI50 in data set [8] was 13.3 µM. The “Class I HDAC (P21 reporter assay) Fold Induction at 10 μM” value in data set [7] was 1.2 Fold. In addition, the “% inhibition” value in [9] came out at 19.3%.
As to `COc1cc2nccc(Oc3ccc4c(C(=O)Nc5ccc(F)cc5N)cccc4c3)c2cc1OC` [Example 36, N-(2-amino-4-fluorophenyl)-6-(6,7-dimethoxyquinolin-4-yloxy)-1-naphthamide], the GI50 in data set [1] was determined as 7.4 µM; in data set [2], 3 nM; in data set [3] it was 2 nM; in data set [4], 12.1 µM; in data set [5], 4.2 µM; in data set [6], 4.1 µM. In data set [8], this compound registered a GI50 of 8.9 µM. In data set [7], the “Class I HDAC (P21 reporter assay) Fold Induction at 10 μM” value came out at 1.2 Fold. Further, in [9], the “% inhibition” value is 14.4%.
On to `COc1cc2nccc(Oc3ccc4c(C(=O)NCc5ccc(C(=O)Nc6ccccc6N)cc5)cccc4c3)c2cc1OC` [Example 37, N-(4-((2-aminophenyl)carbamoyl)benzyl)-6-(6,7-dimethoxyquinolin-4-yloxy)-1-naphthamide], for which the GI50 in [1] was 30 µM; in data set [2], 159 nM; in data set [3], 4 nM; in data set [4], 30 µM; in [5] it was no less than 30 µM; in [6], 30 µM. This compound also returned a GI50 in data set [8] of 30 µM. Further, the “Body weight (g) end” value is 23.6 ± 2.2 g in data set [12] (setting [14]), 24.1 ± 2.1 g in data set [12] (setting [15]), 25.3 ± 0.9 g in [13] (setting [16]) and 24.3 ± 1.1 g in [13] (setting [17]). The “Body weight (g) start” value in data set [12] (setting [14]) stood at 20.6 ± 0.8 g; in [12] (setting [15]) it was 20.8 ± 0.8 g; in data set [13] (setting [16]) it was 20.7 ± 1.2 g; in data set [13] (setting [17]), 21.4 ± 0.6 g. In addition, in [7], the “Class I HDAC (P21 reporter assay) Fold Induction at 10 μM” value is 3.0 Fold. Further, the “% inhibition” value in data set [9] is reported as 35.9%.
Consider `COc1cc2nccc(Oc3ccc4c(C(=O)NCc5ccc(C(=O)Nc6ccccc6N)cn5)cccc4c3)c2cc1OC` [Example 38], for which the GI50 was determined as 30 µM in [1]; 74 nM in data set [2]; 25 nM in data set [3]; 30 µM in [4]; 6.9 µM in [5]; 8 µM in [6]. The GI50 in data set [8] was 9.4 µM. Also, in data set [7], the “Class I HDAC (P21 reporter assay) Fold Induction at 10 μM” value is recorded as 3.1 Fold. Moreover, the “% inhibition” value in [9] is listed as 39.3%.
